Measurements as given in patent publication US20260306460A1, “COMPOSITION FOR REMOVING AND INHIBITING SENESCENT CELLS, AND USES THEREOF” (LIFECEUTIX CO., LTD., priority 2023, published 2026).

Assays:
[1] = system: senescent cells; assay: Viability of senescent cells (CellTiter-Glo), Example 17, Table 13; conditions: Homo sapiens, read-out: Survival (%)
Procedure: Cells induced to undergo senescence by doxorubicin treatment were treated with test compound at designated concentrations and measured using the CellTiter-Glo Luminescent Cell Viability Assay (Promega).

[2] = system: bleomycin-induced pulmonary fibrosis mice; assay: Bleomycin-induced pulmonary fibrosis mice, Example 31, Table 56; format: in vivo, mouse; conditions: untreated = 100%
Procedure: (§1) The control group was administered only the solution in the same volume. After the end of drug administration, the method described in each example below was performed. Liver, kidney, skin, knee joint, heart, and femur tissues were collected from mice in which natural aging was induced in the same manner as in Examples 7-2 and 7-6 of WO2023-085787 A1. Lung tissues were collected from mice in which pulmonary fibrosis was induced using the same method as in Example 24-1. Liver tissues were collected from mice in which hepatic fibrosis was induced using the same method as in Example 26, and total RNA was extracted. qRT-PCR was performed and analyzed using the synthesized cDNA. […] The mRNA amounts of p16, MMP3, and IL6 after natural aging was induced were calculated as 100% and compared with the mRNA amounts of p16, MMP3, and IL6 after treatment with the test compound. In addition, an open field test for the analysis of aging-related frailty, agtr1a mRNA analysis for kidney damage and disease evaluation, col1a1 and SDF1 mRNA analysis for skin aging evaluation such as wrinkles/loss of elasticity/hyperpigmentation, col2a1 mRNA analysis for evaluating joint aging such as osteoarthritis, sur2a mRNA analysis for evaluating cardiac aging such as decreased cardiac load resistance, ctsk mRNA analysis for evaluating bone diseases due to aging such as osteoporosis, muscle tissue weight for analyzing sarcopenia, fat tissue weight for analyzing lipoatrophy, and cataract incidence analysis were performed in mice. For cataract incidence analysis, the drug was administered twice a week under the conditions specified above, and biweekly examinations were conducted until death.
The table below quantitatively presents the evaluation results for each item in mice with bleomycin-induced pulmonary fibrosis, untreated and treated with the test compound.

[3] = system: carbon tetrachloride-induced liver fibrosis mice; assay: Carbon tetrachloride-induced liver fibrosis mice, Example 31, Table 57; format: in vivo, mouse; conditions: CCl4-induced liver fibrosis mice, untreated = 100%
Procedure: as §1

[4] = system: naturally aged mice; assay: Anti-aging evaluation in naturally aged mice, Example 31, Table 55; format: in vivo, mouse; conditions: for Femur Ctsk mRNA / Kidney Agtr1a mRNA / Liver IL6 mRNA / Liver MMP3 mRNA / Liver p16 mRNA / Open Field Test Time in Center: untreated = 100%; for Heart Sur2a mRNA / Joint Col2a1 mRNA / Skin Col1a1 mRNA / Skin SDF1 mRNA: untreated = 1.0; for Muscle Mass: untreated 0.64 g; for Fat Mass: untreated 0.82 g; for Cataract incidence: untreated 83%;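 on all read-outs here: Vehicle-dosed control mice received solution alone at matching volume, values compare test-compound-treated aged mice against that control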
[5] = system: senescent A549 cells; assay: Viability of senescent A549 cells (CellTiter-Glo), Example 18, Table 15; conditions: Homo sapiens, A549, read-out: Survival (%)
Procedure: Senescence-induced cancer cells treated with doxorubicin were treated with the test compound at designated concentrations, and cell viability was measured using the CellTiter-Glo Luminescent Cell Viability Assay (Promega).

Structure (SMILES)	viability at 1.1 µM [1] [%]	viability at 10 µM [1] [%]	viability at 30 µM [1] [%]	viability at 1.1 µM [5] [%]	viability at 10 µM [5] [%]	viability at 30 µM [5] [%]	further results
CC1(C)[C@H]2COc3ccc4ccccc4c3[C@H]2N=C2SC(c3ccccc3)=C(c3ccccc3)N21 [LX-5201]	102	88.3	37.7	102	61.5	3.8	Lung p16 mRNA [2]: 75 (±4.2) %; Col1a1 mRNA [2]: 74 (±6.3) %; Liver p16 mRNA [3]: 64 (±8.4) %; Col1a1 mRNA [3]: 59 (±8.7) %; Femur Ctsk mRNA [4]: 53%; Heart Sur2a mRNA [4]: 1.5 fold; Joint Col2a1 mRNA [4]: 1.9 fold; Kidney Agtr1a mRNA [4]: 58%; Liver IL6 mRNA [4]: 43%; Liver MMP3 mRNA [4]: 67%; Liver p16 mRNA [4]: 58%; Open Field Test Time in Center [4]: 168%; Skin Col1a1 mRNA [4]: 2.1 Fold; Skin SDF1 mRNA [4]: 2.3 fold; Muscle Mass [4]: 0.77 g; Fat Mass [4]: 0.97 g; Cataract incidence [4]: 49%
CN[C@H](CC(C)C)C(=O)N[C@H]1C(=O)N[C@@H](CC(N)=O)C(=O)N[C@H]2C(=O)N[C@H]3C(=O)N[C@H](C(=O)N[C@H](C(=O)O)c4cc(O)cc(O)c4-c4cc3ccc4O)[C@H](O)c3ccc(c(Cl)c3)Oc3cc2cc(c3O[C@@H]2O[C@H](CO)[C@@H](O)[C@H](O)[C@H]2O[C@H]2C[C@](C)(N)[C@H](O)[C@H](C)O2)Oc2ccc(cc2Cl)[C@H]1O [LX-5424, Vancomycin]	106	62.5	10.5	98.9	74.3	21.8	Lung p16 mRNA [2]: 70 (±3.5) %; Col1a1 mRNA [2]: 73 (±2.7) %; Liver p16 mRNA [3]: 79 (±5.6) %; Col1a1 mRNA [3]: 51 (±4.7) %; Femur Ctsk mRNA [4]: 70%; Heart Sur2a mRNA [4]: 2.3 fold; Joint Col2a1 mRNA [4]: 1.5 fold; Kidney Agtr1a mRNA [4]: 68%; Liver IL6 mRNA [4]: 45%; Liver MMP3 mRNA [4]: 59%; Liver p16 mRNA [4]: 72%; Open Field Test Time in Center [4]: 191%; Skin Col1a1 mRNA [4]: 1.6 Fold; Skin SDF1 mRNA [4]: 1.7 fold; Muscle Mass [4]: 0.67 g; Fat Mass [4]: 0.84 g; Cataract incidence [4]: 76%
CCN(CC1C(=O)C2CCN1CC2)C(=O)C(Cl)(Cl)Cl (stereo not shown) [LX-5702]	97.5	5.2	–	91.8	38.1	3.9	Lung p16 mRNA [2]: 61 (±6.2) %; Col1a1 mRNA [2]: 68 (±7.5) %; Liver p16 mRNA [3]: 72 (±3.9) %; Col1a1 mRNA [3]: 65 (±7.2) %; Femur Ctsk mRNA [4]: 61%; Heart Sur2a mRNA [4]: 2.5 fold; Joint Col2a1 mRNA [4]: 2.4 fold; Kidney Agtr1a mRNA [4]: 49%; Liver IL6 mRNA [4]: 49%; Liver MMP3 mRNA [4]: 55%; Liver p16 mRNA [4]: 47%; Open Field Test Time in Center [4]: 211%; Skin Col1a1 mRNA [4]: 1.8 Fold; Skin SDF1 mRNA [4]: 2.0 fold; Muscle Mass [4]: 0.70 g; Fat Mass [4]: 0.85 g; Cataract incidence [4]: 66%
CC12CCN(CC1)C(CNC(=O)C(F)(F)F)C2=O (stereo not shown) [LX-5706]	96.5	12.7	–	88.5	31	0.3	Lung p16 mRNA [2]: 76 (±6.1) %; Col1a1 mRNA [2]: 79 (±5.2) %; Liver p16 mRNA [3]: 69 (±6.9) %; Col1a1 mRNA [3]: 70 (±4.8) %; Femur Ctsk mRNA [4]: 68%; Heart Sur2a mRNA [4]: 2 fold; Joint Col2a1 mRNA [4]: 1.9 fold; Kidney Agtr1a mRNA [4]: 70%; Liver IL6 mRNA [4]: 71%; Liver MMP3 mRNA [4]: 60%; Liver p16 mRNA [4]: 64%; Open Field Test Time in Center [4]: 171%; Skin Col1a1 mRNA [4]: 1.6 Fold; Skin SDF1 mRNA [4]: 1.4 fold; Muscle Mass [4]: 0.69 g; Fat Mass [4]: 0.85 g; Cataract incidence [4]: 74%
CC12CCN(CC1)C(CN(C1CC1)S(C)(=O)=O)C2=O (stereo not shown) [LX-5707]	103	27.3	–	81	37.3	4.3	Lung p16 mRNA [2]: 72 (±8.9) %; Col1a1 mRNA [2]: 69 (±7.1) %; Liver p16 mRNA [3]: 64 (±8.3) %; Col1a1 mRNA [3]: 72 (±9.6) %; Femur Ctsk mRNA [4]: 64%; Heart Sur2a mRNA [4]: 2.3 fold; Joint Col2a1 mRNA [4]: 2.0 fold; Kidney Agtr1a mRNA [4]: 65%; Liver IL6 mRNA [4]: 61%; Liver MMP3 mRNA [4]: 63%; Liver p16 mRNA [4]: 59%; Open Field Test Time in Center [4]: 199%; Skin Col1a1 mRNA [4]: 1.7 Fold; Skin SDF1 mRNA [4]: 1.6 fold; Muscle Mass [4]: 0.70 g; Fat Mass [4]: 0.90 g; Cataract incidence [4]: 70%
CCOc1cc(CC(=O)N[C@@H](CC(C)C)c2ccccc2N2CCCCC2)ccc1C(=O)O [LX-9302, Repaglinide]	99.7	73.5	34.3	94.1	82.3	68.5	viability at 90 µM [5]: 11.8%
C=CC[C@@H]1/C=C(\C)C[C@H](C)C[C@H](OC)[C@H]2O[C@@](O)(C(=O)C(=O)N3CCCC[C@H]3C(=O)O[C@H](/C(C)=C/[C@@H]3CC[C@@H](O)[C@H](OC)C3)[C@H](C)[C@@H](O)CC1=O)[C@H](C)C[C@@H]2OC [LX-9314, Tacrolimus]	84.7	69.2	35.3	92.9	57.1	14.7	–
O=C1[C@H](CC[C@H](O)c2ccc(F)cc2)[C@@H](c2ccc(O)cc2)N1c1ccc(F)cc1 [LX-9321, Ezetimibe]	98.3	86.4	79.6	108	91.4	65.8	viability at 90 µM [1]: 19.4%; viability at 90 µM [5]: 4.1%
COc1ccc(Cl)cc1C(=O)NCCc1ccc(S(=O)(=O)NC(=O)NC2CCCCC2)cc1 [LX-9335, glyburide]	85.2	56.3	12.2	90.2	60.8	13.8	–
CN(C)C[C@@H]1CCn2cc(c3ccccc32)C2=C(C(=O)NC2=O)c2cn(c3ccccc23)CCO1 [LX-9339, Ruboxistaurin]	55.6	–	–	49.2	–	–	–
CC(=O)NCCOC(=O)[C@H](Oc1cccc(C(F)(F)F)c1)c1ccc(Cl)cc1 [LX-9409, Arhalofenate]	80.5	65.7	15.3	72.7	51.9	8.7	–
CCc1ccc(CCOc2ccc(CC3SC(=O)NC3=O)cc2)nc1 (stereo not shown) [LX-9422, Pioglitazone]	94.7	56.2	6.7	104	62.8	15.8	–
CN1CCCC1 [LX-9425, N-methyl pyrrolidine]	102	97.5	66.8	97.5	100	68.2	–
COc1ccccc1OCC(O)CN1CCN(CC(=O)Nc2c(C)cccc2C)CC1 (stereo not shown) [LX-9565, Ranolazine]	78.9	52.3	6.1	97	67.3	34.1	viability at 90 µM [5]: 3.6%
CC(C)(CCCCCC(O)CCCCCC(C)(C)C(=O)O)C(=O)O [LX-9602, Bempedoic acid]	113	102	92.2	101	96.4	75.4	viability at 90 µM [1]: 11.1%; viability at 90 µM [5]: 3.8%
CCCCC[C@H](O)CC[C@@H]1[C@H]2Cc3cccc(OCC(=O)O)c3C[C@H]2C[C@H]1O [LX-9713, Treprostinil]	1.8	–	–	28.4	–	–	–
COc1c(C)c2c(c(O)c1C/C=C(\C)CCC(=O)O)C(=O)OC2 [LX-9725, Mycophenolic acid]	49.3	–	–	62.4	–	–	–
CC[C@H]1[C@@H](O)[C@@H]2[C@H](CC[C@]3(C)[C@@H]([C@H](C)CCC(=O)O)CC[C@@H]23)[C@@]2(C)CC[C@@H](O)C[C@@H]12 [LX-9732, Obeticholic Acid]	95.7	46.4	3.8	97.5	51.3	7.9	–
